Drawing on patent US7868204B2, “Inhibitors of histone deacetylase” (MethylGene Inc., priority 2001, dated 2011), this text covers IC50 for 35 compounds.

The structures appear in SMILES notation.

One test has as its system HCT116 cells. Kind of test: MTT assay. It is filed as cell-based. The conditions noted are these: Homo sapiens, HCT-116, Table 5d; HCT116 cells, 72 hours. The protocol:
HCT116 cells (2000/well) were plated into 96-well tissue culture plates one day before compound treatment. Compounds at various concentrations were added to the cells. The cells were incubated for 72 hours at 37° C. in 5% CO2 incubator. MTT (3-[4,5-dimethylthiazol-2-yl]-2,5 diphenyl tetrazolium bromide, Sigma) was added at a final concentration of 0.5 mg/ml and incubated with the cells for 4 hours before one volume of solubilization buffer (50% N,N-dimethylformamide, 20% SDS, pH 4.7) was added onto the cultured cells. […] OD values were converted to cell numbers according to a standard growth curve of the relevant cell line.
(Formazan colour is commonly taken as a measure of viable cells.)

Test [1] concerns the target T1, cloned recombinant human HDAC-1 (Homo sapiens, UniProt Q13547).
T1 construct: made in house; host or cells: Baculovirus insect cell expression system
Kind of test: Human HDAC-1 enzyme inhibition, Assay 1 ([3H]-acetylated histone substrate, scintillation counting). It is filed as biochemical. The conditions noted are these: Table 5d; read-out: HDAC-1 IC50. As for the experimental part: Assay 1. HDAC inhibitors were screened against a cloned recombinant human HDAC-1 enzyme expressed and purified from a Baculovirus insect cell expression system. […] The mixture was extracted with ethyl acetate and the released [^3H]-acetic acid was quantified by scintillation counting. For inhibition studies, the enzyme was preincubated with compounds at 4° C. for 30 minutes prior to initiation of the enzymatic assay. IC50 values for HDAC enzyme inhibitors were determined by performing dose response curves with individual compounds and determining the concentration of inhibitor producing fifty percent of the maximal inhibition.

T1 sequence (Q13547 whole entry): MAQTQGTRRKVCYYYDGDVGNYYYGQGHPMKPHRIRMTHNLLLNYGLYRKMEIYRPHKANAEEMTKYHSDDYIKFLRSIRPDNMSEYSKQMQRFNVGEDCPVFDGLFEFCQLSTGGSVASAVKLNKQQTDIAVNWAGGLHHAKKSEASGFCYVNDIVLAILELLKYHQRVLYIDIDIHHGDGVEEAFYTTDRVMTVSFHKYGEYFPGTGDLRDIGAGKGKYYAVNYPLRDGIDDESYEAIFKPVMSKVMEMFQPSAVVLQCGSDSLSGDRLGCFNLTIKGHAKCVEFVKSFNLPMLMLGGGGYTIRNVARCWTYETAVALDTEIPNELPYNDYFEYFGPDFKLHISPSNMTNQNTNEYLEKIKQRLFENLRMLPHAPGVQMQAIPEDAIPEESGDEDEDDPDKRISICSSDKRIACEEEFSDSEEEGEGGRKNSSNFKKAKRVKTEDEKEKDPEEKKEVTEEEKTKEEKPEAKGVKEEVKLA

What is called IC50 is the midpoint of a concentration-inhibition curve. For `Nc1ccccc1NC(=O)/C=C/c1ccc(CNc2cc([N+](=O)[O-])cc([N+](=O)[O-])c2)cc1` [Cpd 495], the figures for the IC50 (with HCT116 cells; in test [1]) were 7 µM and 4 µM, respectively.

Take `Nc1ccccc1NC(=O)/C=C/c1ccc(NCc2cccc(OC(F)(F)F)c2)cc1` [Cpd 496, N-(2-Amino-phenyl)-3-[4-(3-trifluoromethoxy-benzylamino)-phenyl]-acrylamide]: the IC50 turned out to be 13 µM in the test on HCT116 cells and 8 µM in test [1].

As to `COc1cc(OCc2ccc(/C=C/C(=O)Nc3ccccc3N)cc2)cc(OC)c1OC` [Cpd 497, N-(2-Amino-phenyl)-3-[4-(3,4,5-trimethoxy-phenoxymethyl)-phenyl]-acrylamide], the figures for the IC50 (with HCT116 cells; in test [1]) were 6 µM and 15 µM, respectively.

As to `COc1cc(SCc2ccc(/C=C/C(=O)Nc3ccccc3N)cc2)cc(OC)c1OC` [Cpd 500, N-(2-Amino-phenyl)-3-[4-(3,4,5-trimethoxy-phenylsulfanylmethyl)-phenyl]-acrylamide], the half-maximal inhibitory concentration (IC50) is 37 µM in the test with HCT116 cells and 23 µM in test [1].

Consider `CC(=O)c1cc2c(cc1NCc1ccc(/C=C/C(=O)Nc3ccccc3N)cc1)OCO2` [Cpd 501, 3-{4-[(6-Acetyl-benzo[1,3]dioxol-5-ylamino)-methyl]-phenyl}-N-(2-amino-phenyl)-acrylamide], for which the 50% inhibitory concentration (IC50) stood at 10 µM with HCT116 cells and 4 µM in test [1].

On to `COc1ccc2nc(NCc3ccc(/C=C/C(=O)Nc4ccccc4N)cc3)sc2c1` [Cpd 502], for which the values for the IC50 (in the test with HCT116 cells; in test [1]) were above 25 µM and 3 µM, respectively.

Turning to `Nc1ccccc1NC(=O)/C=C/c1ccc(CNc2ccc(N3CCOCC3)cc2)cc1` [Cpd 503, N-(2-Amino-phenyl)-3-{4-[(4-morpholin-4-yl-phenylamino)-methyl]-phenyl}-acrylamide], the IC50 is above 25 µM in the test on HCT116 cells and 5 µM in test [1].

As for `Nc1ccccc1NC(=O)/C=C/c1ccc(CNc2ccc(OC(F)(F)F)cc2)cc1` [Cpd 504, N-(2-Amino-phenyl)-3-{4-[(4-trifluoromethoxy-phenylamino)-methyl]-phenyl}-acrylamide], the half-maximal inhibitory concentration (IC50) in the test with HCT116 cells is above 25 µM; in test [1], 5 µM.

As to `Nc1ccccc1NC(=O)/C=C/c1ccc(CNc2ccc3c(c2)OCO3)cc1` [Cpd 505, N-(2-Amino-phenyl)-3-[4-(benzo[1,3]dioxol-5-ylaminomethyl)-phenyl]-acrylamide], the figures for the IC50 (in the test on HCT116 cells; in test [1]) were 6 µM and 3 µM, respectively.

As to `Nc1ccccc1NC(=O)/C=C/c1ccc(CNc2cccc(OC(F)(F)F)c2)cc1` [Cpd 506, N-(2-Amino-phenyl)-3-{4-[(3-trifluoromethoxy-phenylamino)-methyl]-phenyl}-acrylamide], the concentration for half-maximal inhibition (IC50) in the test on HCT116 cells is 11 µM; in test [1] it was 15 µM.

For the compound `CC(C)c1ccc(NCc2ccc(/C=C/C(=O)Nc3ccccc3N)cc2)cc1` [Cpd 510, N-(2-Amino-phenyl)-3-{4-[(4-isopropyl-phenylamino)-methyl]-phenyl}-acrylamide], the results for the 50% inhibitory concentration (IC50) (in the test on HCT116 cells; in test [1]) were 5 µM and 6 µM, respectively.

Consider `Nc1ccccc1NC(=O)/C=C/c1ccc(CNc2ccc(-c3ccccc3)cc2)cc1` [Cpd 511, N-(2-Amino-phenyl)-3-[4-(biphenyl-4-ylaminomethyl)-phenyl]-acrylamide], for which the half-maximal inhibitory concentration (IC50) was above 25 µM in the test on HCT116 cells and 4 µM in test [1].

On to `Nc1ccccc1NC(=O)/C=C/c1ccc(Br)cc1` [Cpd 516, N-(2-Amino-phenyl)-3-(4-bromo-phenyl)-acrylamide], for which the IC50 (in the test with HCT116 cells; in test [1]) was 15 µM each time.

On to `COc1cc(OC)c(OC)cc1CNc1ccc(/C=C/C(=O)Nc2ccccc2N)cc1` [Cpd 517], for which the concentration for half-maximal inhibition (IC50) was found to be 5 µM with HCT116 cells and 6 µM in test [1].

In the case of `Nc1ccccc1NC(=O)/C=C/c1ccc(C(=O)Nc2ccccc2N)cc1` [Cpd 520, N-(2-Amino-phenyl)-4-[2-(2-amino-phenylcarbamoyl)-vinyl]-benzamide], the values for the half-inhibitory concentration (IC50) (in the test with HCT116 cells; in test [1]) were 3 µM and 5 µM, respectively.

For the compound `Nc1ccccc1NC(=O)/C=C/c1ccc(NCCNc2nccs2)nc1` [Cpd 522, N-(2-Amino-phenyl)-3-{6-[2-(thiazol-2-ylamino)-ethylamino]-pyridin-3-yl}-acrylamide], the half-maximal inhibitory concentration (IC50) in the test on HCT116 cells was 30 µM; in test [1], 17 µM.

Take `CN1CCN(c2ccc(NCc3ccc(/C=C/C(=O)Nc4ccccc4N)cc3)cc2F)CC1` [Cpd 527, N-(2-Amino-phenyl)-3-(4-{[3-fluoro-4-(4-methyl-piperazin-1-yl)-phenylamino]-methyl}-phenyl)-acrylamide]: the IC50 in the test with HCT116 cells turned out to be 3 µM; in test [1], 4 µM.

Turning to `Nc1ccccc1NC(=O)/C=C/c1ccc(CNc2cccc(O)c2)cc1` [Cpd 528], the IC50 with HCT116 cells was found to be 32 µM; in test [1], 20 µM.

In the case of `Nc1ccccc1NC(=O)/C=C/c1ccc(CNc2nccc(C(F)(F)F)n2)cc1` [Cpd 529], the IC50 in the test on HCT116 cells came out at 17 µM; in test [1] it was 5 µM.

As to `Nc1ccccc1NC(=O)/C=C/c1ccc(CNc2cccc(CO)c2)cc1` [Cpd 530, N-(2-Amino-phenyl)-3-{4-[(3-hydroxymethyl-phenylamino)-methyl]-phenyl}-acrylamide], the IC50 with HCT116 cells was 9 µM; in test [1], 8 µM.

For `N#Cc1cccc(NCc2ccc(C=CC(=O)Nc3ccccc3N)cc2)c1` [Cpd 532], the values for the IC50 (with HCT116 cells; in test [1]) were 5 µM and 3 µM, respectively.

As for `CC(=O)NCc1cccc(NCc2ccc(/C=C/C(=O)Nc3ccccc3N)cc2)c1` [Cpd 533, 3-(4-{[3-(Acetylamino-methyl)-phenylamino]-methyl}-phenyl)-N-(2-amino-phenyl)-acrylamide], the values for the IC50 (in the test on HCT116 cells; in test [1]) were 11 µM and 5 µM, respectively.

Regarding `Nc1ccccc1NC(=O)/C=C/c1ccc(CNc2ccc([N+](=O)[O-])c(C(F)(F)F)c2)cc1` [Cpd 534, N-(2-Amino-phenyl)-3-{4[(4-nitro-3-trifluoromethyl-phenylamino)-methyl]-phenyl}-acrylamide], the 50% inhibitory concentration (IC50) in the test with HCT116 cells was determined as 5 µM; in test [1], 3 µM.

With `Nc1ccccc1NC(=O)/C=C/c1ccc(CNc2cc(Cl)cc(Cl)c2)cc1` [Cpd 535, N-(2-Amino-phenyl)-3-{4-[(3,5-dichloro-phenylamino)-methyl]-phenyl}-acrylamide], the IC50 came to 6 µM with HCT116 cells and 4 µM in test [1].

In the case of `COc1cc(/C=C/c2ccc(/C=C/C(=O)Nc3ccccc3N)cc2)cc(OC)c1OC` [Cpd 536, N-(2-Amino-phenyl)-3-{4-[2-(3,4,5-trimethoxy-phenyl)-vinyl]-phenyl}-acrylamide], the concentration for half-maximal inhibition (IC50) turned out to be 9 µM in the test with HCT116 cells and 18 µM in test [1].

For the compound `Nc1ccccc1NC(=O)/C=C/c1ccc(CNc2cccc(S(N)(=O)=O)c2)cc1` [Cpd 538, N-(2-Amino-phenyl)-3-{4-[(3-sulfamoyl-phenylamino)-methyl]-phenyl}-acrylamide], the half-inhibitory concentration (IC50) came to 12 µM with HCT116 cells and 4 µM in test [1].

For the compound `Nc1ccccc1NC(=O)/C=C/c1ccc(CNc2cccc(S(=O)(=O)NCCCN3CCOCC3)c2)cc1` [Cpd 539, N-(2-Amino-phenyl)-3-(4-{[3-(3-morpholin-4-yl-propylsulfamoyl)-phenylamino]-methyl}-phenyl)-acrylamide], the concentration for half-maximal inhibition (IC50) worked out at 10 µM with HCT116 cells and 2 µM in test [1].

Consider `COc1cc(CCc2ccc(/C=C/C(=O)Nc3ccccc3N)cc2)cc(OC)c1OC` [Cpd 540, N-(2-Amino-phenyl)-3-{4-[2-(3,4,5-trimethoxy-phenyl)-ethyl]-phenyl}-acrylamide], for which the half-maximal inhibitory concentration (IC50) (with HCT116 cells; in test [1]) was 10 µM throughout.

Take `Nc1ccccc1NC(=O)/C=C/c1ccc(CNc2cccc(-c3nnn[nH]3)c2)cc1` [Cpd 543, N-(2-Amino-phenyl)-3-(4-{[3-(1H-tetrazol-5-yl)-phenylamino]-methyl}-phenyl)-acrylamide]: the half-maximal inhibitory concentration (IC50) was above 25 µM in the test on HCT116 cells and 15 µM in test [1].

With `Nc1ccccc1NC(=O)/C=C/c1ccc(CNc2ccc(Cc3nnn[nH]3)cc2)cc1` [Cpd 544, N-(2-Amino-phenyl)-3-(4-{[4-(1H-tetrazol-5-ylmethyl)-phenylamino]-methyl}-phenyl)-acrylamide], the concentration for half-maximal inhibition (IC50) with HCT116 cells came out at 45 µM; in test [1], 17 µM.

Take `Nc1ccccc1NC(=O)/C=C/c1ccc(CNc2ccc(Br)cc2)cc1` [Cpd 545, N-(2-Amino-phenyl)-3-{4[(4-bromo-phenylamino)-methyl]-phenyl}-acrylamide]: the IC50 in the test on HCT116 cells is 12 µM; in test [1], 2 µM.

In the case of `Nc1ccccc1NC(=O)/C=C/c1ccc(CNc2cccc(Br)c2)cc1` [Cpd 546, N-(2-Amino-phenyl)-3-{4-[(3-bromo-phenylamino)-methyl]-phenyl}-acrylamide], the IC50 in the test on HCT116 cells worked out at 10 µM; in test [1], 3 µM.

As to `Nc1ccccc1NC(=O)/C=C/c1ccc(CNc2ccc(I)cc2)cc1` [Cpd 547, N-(2-Amino-phenyl)-3-{4-[(4-iodo-phenylamino)-methyl]-phenyl}-acrylamide], the values for the concentration for half-maximal inhibition (IC50) (in the test on HCT116 cells; in test [1]) were 8 µM and 4 µM, respectively.

For the compound `Nc1ccccc1NC(=O)/C=C/c1ccc(CNc2cccc(I)c2)cc1` [Cpd 548, N-(2-Amino-phenyl)-3-{4-[(3-iodo-phenylamino)-methyl]-phenyl}-acrylamide], the IC50 with HCT116 cells was determined as 9 µM; in test [1], 3 µM.

For the compound `Nc1ccccc1NC(=O)/C=C/c1ccc(CNc2cccc(OCCO)c2)cc1` [Cpd 549, N-(2-Amino-phenyl)-3-(4-{[3-(2-hydroxy-ethoxy)-phenylamino]-methyl}-phenyl)-acrylamide], the IC50 came out at 19 µM in the test on HCT116 cells and 4 µM in test [1].
